The values that follow come from article PMC11051924, “Design, Synthesis, and Biological Evaluation of Novel Tetrahydroacridin Hybrids with Sulfur-Inserted Linkers as Potential Multitarget Agents for Alzheimer’s Disease” (Molecules, 2024).

Entries after “also recorded” stand apart in the source; their conditions may differ. Where two headings read alike, the source gives them in different places.

In data set [1] the target is T1, AChE (Electrophorus electricus, UniProt O42275). Also noted: method as in PMID 34024109. To be noted: value of the design leads (abstract, Figure 2); cited from earlier work.
T1 sequence (O42275 24-633): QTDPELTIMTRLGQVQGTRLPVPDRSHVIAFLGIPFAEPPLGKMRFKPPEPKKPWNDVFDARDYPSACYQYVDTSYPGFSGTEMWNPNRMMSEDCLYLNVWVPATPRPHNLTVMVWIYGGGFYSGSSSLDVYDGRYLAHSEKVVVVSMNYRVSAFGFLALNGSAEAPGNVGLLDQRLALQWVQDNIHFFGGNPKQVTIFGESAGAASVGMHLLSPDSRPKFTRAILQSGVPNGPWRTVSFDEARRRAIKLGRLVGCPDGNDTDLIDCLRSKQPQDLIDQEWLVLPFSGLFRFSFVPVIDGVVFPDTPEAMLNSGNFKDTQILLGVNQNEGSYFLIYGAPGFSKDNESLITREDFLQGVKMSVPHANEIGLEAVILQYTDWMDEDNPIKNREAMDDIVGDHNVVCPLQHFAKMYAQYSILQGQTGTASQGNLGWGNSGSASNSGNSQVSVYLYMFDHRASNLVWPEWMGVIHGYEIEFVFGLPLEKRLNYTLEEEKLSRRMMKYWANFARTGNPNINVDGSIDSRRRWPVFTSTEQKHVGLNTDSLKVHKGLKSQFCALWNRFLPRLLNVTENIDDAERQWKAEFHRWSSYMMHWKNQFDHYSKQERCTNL
Data set [2] deals with GSK-3β. To be noted: cited from earlier work.
Data set [3] has as its target T2, recombinant human GSK-3β (Homo sapiens, UniProt P49841).
T2 construct: purchased
Description: GSK-3β inhibition (luciferin kinase detection). It counts as biochemical. The protocol: Add ATP and substrate polypeptide to the reaction template for GSK-3β under the most suitable enzyme reaction system and conditions, let the enzyme react with ATP and substrate polypeptide, and use luciferin kinase detection technology to detect enzyme activity. All the compounds to be tested were prepared by adding DMSO to a solution with a concentration of 10^−2 mol/L and diluted with PBS to the required concentration when used; the purchased GSK-3β was diluted from 1600 ng/μL to 2 ng/μL, ready for use.

In data set [4] the target is T1, AChE. The data set is described as follows: biochemical. On the set-up: species or system electric eel. The protocol: The inhibitory activities of the compounds on AChE were determined by an Ellman assay. First, 20 μL of phosphate buffer was added to a 96-well plate. Then, compounds of different concentrations (20 μL), 100μL of 1mM DTNB, and 40 μL of AChE solution (2 U/mL) were added successively. The plate was incubated at 37 °C for 15 min. Briefly, 20 μL of acetylthiocholine iodide (1 mM) was added to the mixed solution. The plate was incubated at 25 °C for 20 min. The reaction was terminated by adding 3% SDS to each well. […] The inhibition of each compound was calculated using the formula (1 − Ai/Ac) × 100, where Ai and Ac represent the absorbance of the reaction mixture in the presence and absence of inhibitors, respectively. The IC50 values of all target compounds were calculated by using Graph Pad Prism 9.5.

The test system of data set [5] is SH-SY5Y neuroblastoma cells. Description: Cytotoxicity on SH-SY5Y cells (MTT assay). In kind it is cell-based, human. To be noted: concentrations of up to 25 μM. On the procedure:
SH-SY5Y cells were cultured in Dulbecco’s modified Eagle medium (DMEM) with F12 (KeyGEN BioTECH, Nanjing, China), supplemented with 10% (v/v) fetal bovine serum (FBS) (Sen Bei Jia) and antibiotics (penicillin streptomycin) (KeyGEN BioTECH, Nanjing, China). Cells were kept at 37 °C and 5% CO2 in a humidified atmosphere in a cell culture incubator and passaged twice a week.
The cytotoxicity assay on SH-SY5Y cells was the same as in our previous studies. Cells were seeded in a 96-well plate, and the medium was removed after 24 h. Compound 18a (3.125 μM, 6.25 μM, 12.5 μM, and 25 μM) was added to each well. After treatment for 24 h, 10 μL of 3-(4,5-dimethyl-2-thiazolyl)-2,5-diphenyl-2-H-tetrazolium bromide was added to each well. After incubation at 37 °C for 4 h, 100 μL of DMSO was added, and the absorbance of the mixture was determined at 590 nm using a microplate reader (FC/K3, Thermo, Waltham, MA, USA). We used the formula Ae/Ab 100% to calculate the survival rate, where Ae and Ab represent the absorbance in the presence and absence of the tested drugs. Each experiment was carried out three times in total.

The target in data set [6] is T1, AChE. Description: Kinetic study of AChE inhibition (Lineweaver–Burk). In kind it is biochemical. Particulars: Lineweaver–Burk plots; 0.02, 0.04, 0.08 μM inhibitor. On the procedure: In 96-well plates, 20μL of PBS, compound 18a (20 μL) with three final concentrations (0.02 μM, 0.04 μM, and 0.08 μM), 20 μL of acetylthiocholine iodide (50–300 μM), and 40 μL of AChE (2 U/mL) were added successively. After incubation at 37 °C for 15 min, 100 μL of DTNB (1 mM) was added. A microplate reader (Thermo, Waltham, MA, USA) was used to record the absorbance at 405 nm. Lineweaver–Burk reciprocal plots were created by graphing 1/V vs. 1/[S] by using GraphPad Prism 9.5.

In data set [7] the test system is HepG2 cells. Description: Hepatotoxicity on HepG2 cells (MTT assay). It counts as cell-based. Particulars: concentrations of up to 20 μM. The protocol: HepG2 cells were cultured in DMEM supplemented with 10% FBS and 100 U/mL of penicillin-streptomycin (Thermo, Waltham, MA, USA) at 37 °C in a humidified atmosphere containing 5% CO2.
HepG2 cells were seeded in 96-well plates at a density of 2 × 10^4 cells per well. After 24 h, different concentrations of tacrine or compound 18a (1 μM, 5 μM, 10 μM, and 20 μM) and DMSO were added to the wells. MTT assay was performed, and the survival percentage of cells was calculated.

Setting [8] is: recombinant human GSK-3β, mean of three independent determinations, read-out: IC50 (μM) ± SEM GSK-3β.
The mark [9] stands for this setting: AChE from electric eel, mean of three independent determinations, read-out: IC50 (μM) ± SEM AChE.

T2 sequence (P49841 whole entry): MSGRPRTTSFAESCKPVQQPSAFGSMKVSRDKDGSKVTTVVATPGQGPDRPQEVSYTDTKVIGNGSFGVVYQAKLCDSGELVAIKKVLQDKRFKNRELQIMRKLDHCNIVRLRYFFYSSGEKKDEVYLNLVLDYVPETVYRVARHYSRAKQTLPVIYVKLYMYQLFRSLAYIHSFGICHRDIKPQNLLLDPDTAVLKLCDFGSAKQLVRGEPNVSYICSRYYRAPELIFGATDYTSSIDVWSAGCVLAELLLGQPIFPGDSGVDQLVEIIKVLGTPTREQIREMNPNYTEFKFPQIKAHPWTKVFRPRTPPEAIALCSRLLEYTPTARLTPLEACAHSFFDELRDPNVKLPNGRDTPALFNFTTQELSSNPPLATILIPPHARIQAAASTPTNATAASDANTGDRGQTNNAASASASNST

As for `Cn1c(NCCCCCCCNc2c3c(nc4cc(Cl)ccc24)CCCC3)nc(-c2ccncc2F)cc1=O` [Compound 7], the IC50 in data set [1] is 51 nM; in data set [2] (previous hybrid compound 7), 89 nM.
For `Cn1c(NCCSSCCNc2c3c(nc4ccc(Br)cc24)CCCC3)nc(-c2ccncc2)cc1=O` [Compound 18b, 2-((2-((2-((7-Bromo-1,2,3,4-tetrahydroacridin-9-yl)amino)ethyl)disulfanyl)ethyl)amino)-3-methyl-6-(pyridin-4-yl)pyrimidin-4(3H)-one], the IC50 in data set [3] (setting [8]) turned out to be 0.37 ± 0.02 µM; in data set [4] (setting [9]), 2.13 ± 0.11 µM.
Take `Cn1c(NCCSSCCNc2c3c(nc4cc(Cl)ccc24)CCCC3)nc(-c2ccncc2)cc1=O` [Compound 18a, 2-((2-((2-((6-Chloro-1,2,3,4-tetrahydroacridin-9-yl)amino)ethyl)disulfanyl)ethyl)amino)-3-methyl-6-(pyridin-4-yl)pyrimidin-4(3H)-one]: the “toxicity to SH-SY5Y neuroblastoma cells” value in data set [5] was “lack of toxicity; also recorded: no toxicity”. Also, the “inhibition mode against AChE” value in data set [6] is given as “mixed type”. For the same compound, the “hepatotoxicity on HepG2 cells” value in data set [7] was “no significant hepatotoxicity”. The IC50 in data set [3] (setting [8]) is 0.93 ± 0.08 µM; in data set [4] (setting [9]) it was 0.047 ± 0.002 µM.
For `Cn1c(SCCNc2c3c(nc4ccc(Cl)cc24)CCCC3)nc(-c2ccncc2)cc1=O` [Compound 16c, 2-((2-((7-Chloro-1,2,3,4-tetrahydroacridin-9-yl)amino)ethyl)thio)-3-methyl-6-(pyridin-4-yl)pyrimidin-4(3H)-one], the IC50 is 2.28 ± 0.07 µM in data set [3] (setting [8]) and 10.3 ± 0.7 µM in data set [4] (setting [9]).
Take `Cc1nc(-c2ccncc2)cc(=O)[nH]1` [Compound 5]: the IC50 in data set [2] (pyrimidone lead compound 5) was 3000 nM.
In the case of `Cn1c(SCCNc2c3c(nc4ccc(Br)cc24)CCCC3)nc(-c2ccncc2F)cc1=O` [Compound 16e, 2-((2-((7-Bromo-1,2,3,4-tetrahydroacridin-9-yl)amino)ethyl)thio)-6-(3-fluoropyridin-4-yl)-3-methylpyrimidin-4(3H)-one], the IC50 in data set [3] (setting [8]) is 0.94 ± 0.02 µM; in data set [4] (setting [9]) it was 15.3 ± 0.9 µM.
As for `Cn1c(SCCNc2c3c(nc4ccc(Br)cc24)CCCC3)nc(-c2ccncc2)cc1=O` [Compound 16b, 2-((2-((7-Bromo-1,2,3,4-tetrahydroacridin-9-yl)amino)ethyl)thio)-3-methyl-6-(pyridin-4-yl)pyrimidin-4(3H)-one], the IC50 in data set [3] (setting [8]) was 38.5 ± 0.7 µM; in data set [4] (setting [9]) it was 20 ± 1.5 µM.
Regarding `Cn1c(NCCSSCCNc2c3c(nc4ccc(Cl)cc24)CCCC3)nc(-c2ccncc2)cc1=O` [Compound 18c, 2-((2-((2-((7-Chloro-1,2,3,4-tetrahydroacridin-9-yl)amino)ethyl)disulfanyl)ethyl)amino)-3-methyl-6-(pyridin-4-yl)pyrimidin-4(3H)-one], the IC50 in data set [3] (setting [8]) was determined as 0.42 ± 0.03 µM; in data set [4] (setting [9]) it was 2.24 ± 0.13 µM.
As to `Cn1c(SCCNc2c3c(nc4ccc(Cl)cc24)CCCC3)nc(-c2ccncc2F)cc1=O` [Compound 16f, 2-((2-((7-Chloro-1,2,3,4-tetrahydroacridin-9-yl)amino)ethyl)thio)-6-(3-fluoropyridin-4-yl)-3-methylpyrimidin-4(3H)-one], the IC50 came to 2.44 ± 0.06 µM in data set [3] and 16.5 ± 0.8 µM in data set [4].
Regarding `Cn1c(SCCNc2c3c(nc4cc(Cl)ccc24)CCCC3)nc(-c2ccncc2)cc1=O` [Compound 16a, 2-((2-((6-Chloro-1,2,3,4-tetrahydroacridin-9-yl)amino)ethyl)thio)-3-methyl-6-(pyridin-4-yl)pyrimidin-4(3H)-one], the IC50 in data set [3] (setting [8]) was determined as 15.1 ± 0.9 µM; in data set [4] (setting [9]), 2.3 ± 0.14 µM.
As to `Cn1c(SCCNc2c3c(nc4cc(Cl)ccc24)CCCC3)nc(-c2ccncc2F)cc1=O` [Compound 16d, 2-((2-((6-Chloro-1,2,3,4-tetrahydroacridin-9-yl)amino)ethyl)thio)-6-(3-fluoropyridin-4-yl)-3-methylpyrimidin-4(3H)-one], the 50% inhibitory concentration (IC50) amounted to 1.69 ± 0.09 µM in data set [3] (setting [8]) and 1.89 ± 0.21 µM in data set [4] (setting [9]).
